# Assay results taken from patent US6737383B1, “Herbicidal oxadiazolidines” (priority 1999, dated 2004).
# Columns and labels:
# wheat = assay: Test B pre/postemergence wheat; assay type: in vivo, Triticum aestivum
# Method in brief: (§1)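 Herbicidal effect was estimated by eye on a ten-point control scale after plants spent twelve to sixteen days in a greenhouse following soil or foliar treatment. Foliar sprays targeted plants at one to four leaves; all doses were formulated in a non-phytotoxic solvent with surfactant.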
# giant foxtail = assay: Test B pre/postemergence giant foxtail; assay type: in vivo, Setaria faberii
# Method in brief: as §1
# rice = assay: Test B flood test rice; assay type: in vivo, Oryza sativa; conditions: Rate 125 g/ha; Postemergence section (flood test species); scale 0 to 10, 0 no effect, 10 complete control
# Method in brief: (§2)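 Flood test on plants grown to the 2-leaf stage; treated plants kept in greenhouse twelve to sixteen days, then visually rated against controls on a 0 (no effect) to 10 (complete control) scale.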
# duck salad = assay: Test B flood test duck salad; assay type: in vivo, Heteranthera limosa; conditions: Rate 125 g/ha; Postemergence section (flood test species); scale 0 to 10, 0 no effect, 10 complete control
# Method in brief: as §2
# cocklebur = assay: Test B pre/postemergence cocklebur; assay type: in vivo, Xanthium strumarium
# Method in brief: as §1
# velvetleaf = assay: Test B pre/postemergence velvetleaf; assay type: in vivo, Abutilon theophrasti
# Method in brief: as §1
# wild oat = assay: Test B pre/postemergence wild oat; assay type: in vivo, Avena fatua
# Method in brief: as §1
# blackgrass = assay: Test B pre/postemergence blackgrass; assay type: in vivo, Alopecurus myosuroides
# Method in brief: as §1
# bedstraw = assay: Test B pre/postemergence bedstraw; assay type: in vivo, Galium aparine
# Method in brief: as §1
# surinam grass = assay: Test B pre/postemergence surinam grass; assay type: in vivo, Brachiaria decumbens
# Method in brief: as §1
# purple nutsedge = assay: Test B pre/postemergence purple nutsedge; assay type: in vivo, Cyperus rotundus
# Method in brief: as §1
# corn = assay: Test B pre/postemergence corn; assay type: in vivo, Zea mays
# Method in brief: as §1
# crabgrass = assay: Test B pre/postemergence crabgrass; assay type: in vivo, Digitaria sanguinalis
# Method in brief: as §1
# sugar beet = assay: Test B pre/postemergence sugar beet; assay type: in vivo, Beta vulgaris
# Method in brief: as §1
# pigweed = assay: Test B pre/postemergence pigweed; assay type: in vivo, Amaranthus retroflexus
# Method in brief: as §1
# morningglory = assay: Test B pre/postemergence morningglory; assay type: in vivo, Ipomoea hederacea
# Method in brief: as §1
# soybean = assay: Test B pre/postemergence soybean; assay type: in vivo, Glycine max
# Method in brief: as §1
# rape = assay: Test B pre/postemergence rape; assay type: in vivo, Brassica napus
# Method in brief: as §1
# [1] = Postemergence, Rate 62 g/ha, scale 0 to 10, 0 is no effect, 10 is complete control
# [2] = Postemergence, Rate 250 g/ha, scale 0 to 10, 0 no effect, 10 complete control
# [3] = Preemergence, Rate 62 g/ha, scale 0 to 10, 0 is no effect, 10 is complete control
# [4] = Preemergence, Rate 125 g/ha, scale 0 to 10 (0 no effect, 10 complete control)
# [5] = Preemergence, Rate 250 g/ha, scale of 0 to 10 where 0 is no effect and 10 is complete control
# [6] = Preemergence, Rate 500 g/ha, scale 0 (no effect) to 10 (complete control)
# [7] = Rate 125 g/ha, Postemergence, scale 0 to 10, 0 no effect, 10 complete control
# [8] = Rate 500 g/ha, Postemergence, scale 0 to 10, 0 no effect, 10 complete control
smiles,measurement,setting,value
COc1ccc(N(C(=O)n2oc(=O)n(-c3ccccc3C)c2=O)C(C)C)cc1 [Compound 49],Wheat plant response rating,wheat; [1],0
same,Wheat plant response rating,wheat; [2],0
same,"Plant response rating, Wheat",wheat; [3],0
same,"Plant response rating, Wheat",wheat; [4],0
same,"Plant response rating, Wheat",wheat; [5],0
same,Wheat plant response rating,wheat; [6],0
same,Wheat plant response rating,wheat; [7],0
same,Wheat plant response rating,wheat; [8],0
same,Giant foxtail plant response rating,giant foxtail; [1],1
same,Giant foxtail plant response rating,giant foxtail; [2],9
same,"Plant response rating, Giant foxtail",giant foxtail; [3],8
same,"Plant response rating, Giant foxtail",giant foxtail; [4],8
same,"Plant response rating, Giant foxtail",giant foxtail; [5],10
same,Giant foxtail plant response rating,giant foxtail; [6],10
same,Giant foxtail plant response rating,giant foxtail; [7],4
same,Giant foxtail plant response rating,giant foxtail; [8],9
same,Rice plant response rating,rice,0
same,Ducksalad plant response rating,duck salad,0
same,Cocklebur plant response rating,cocklebur; [1],0
same,Cocklebur plant response rating,cocklebur; [2],0
same,"Plant response rating, Cocklebur",cocklebur; [3],0
same,"Plant response rating, Cocklebur",cocklebur; [4],0
same,"Plant response rating, Cocklebur",cocklebur; [5],0
same,Cocklebur plant response rating,cocklebur; [6],0
same,Cocklebur plant response rating,cocklebur; [7],0
same,Cocklebur plant response rating,cocklebur; [8],0
same,Velvetleaf plant response rating,velvetleaf; [1],0
same,Velvetleaf plant response rating,velvetleaf; [2],0
same,"Plant response rating, Velvetleaf",velvetleaf; [3],0
same,"Plant response rating, Velvetleaf",velvetleaf; [4],0
same,"Plant response rating, Velvetleaf",velvetleaf; [5],0
same,Velvetleaf plant response rating,velvetleaf; [6],0
same,Velvetleaf plant response rating,velvetleaf; [7],0
same,Velvetleaf plant response rating,velvetleaf; [8],0
same,Wild oats plant response rating,wild oat; [1],0
same,Wild oats plant response rating,wild oat; [2],0
same,"Plant response rating, Wild oats",wild oat; [4],0
same,"Plant response rating, Wild oats",wild oat; [5],0
same,Wild oats plant response rating,wild oat; [6],0
same,Wild oats plant response rating,wild oat; [7],0
same,Wild oats plant response rating,wild oat; [8],0
same,Blackgrass plant response rating,blackgrass; [1],0
same,Blackgrass plant response rating,blackgrass; [2],0
same,"Plant response rating, Blackgrass",blackgrass; [3],0
same,"Plant response rating, Blackgrass",blackgrass; [4],0
same,"Plant response rating, Blackgrass",blackgrass; [5],0
same,Blackgrass plant response rating,blackgrass; [6],0
same,Blackgrass plant response rating,blackgrass; [7],0
same,Blackgrass plant response rating,blackgrass; [8],0
same,Bedstraw plant response rating,bedstraw; [1],0
same,Bedstraw plant response rating,bedstraw; [2],5
same,"Plant response rating, Bedstraw",bedstraw; [3],0
same,"Plant response rating, Bedstraw",bedstraw; [4],0
same,"Plant response rating, Bedstraw",bedstraw; [5],0
same,Bedstraw plant response rating,bedstraw; [6],0
same,Bedstraw plant response rating,bedstraw; [7],0
same,B. signalgrass plant response rating,surinam grass; [1],0
same,B. signalgrass plant response rating,surinam grass; [2],0
same,"Plant response rating, B. signalgrass",surinam grass; [3],0
same,"Plant response rating, B. signalgrass",surinam grass; [4],0
same,"Plant response rating, B. signalgrass",surinam grass; [5],0
same,B. signalgrass plant response rating,surinam grass; [6],0
same,B. signalgrass plant response rating,surinam grass; [7],0
same,B. signalgrass plant response rating,"surinam grass; Rate 500 g/ha, Postemergence, scale of 0 to 10 where 0 is no effect and 10 is complete control",0
same,Nutsedge plant response rating,purple nutsedge; [1],0
same,Nutsedge plant response rating,purple nutsedge; [2],0
same,"Plant response rating, Nutsedge",purple nutsedge; [3],0
same,"Plant response rating, Nutsedge",purple nutsedge; [4],0
same,"Plant response rating, Nutsedge",purple nutsedge; [5],0
same,Nutsedge plant response rating,purple nutsedge; [6],0
same,Nutsedge plant response rating,purple nutsedge; [7],0
same,Nutsedge plant response rating,purple nutsedge; [8],0
same,Corn plant response rating,corn; [1],0
same,Corn plant response rating,corn; [2],0
same,"Plant response rating, Corn",corn; [3],0
same,"Plant response rating, Corn",corn; [4],0
same,"Plant response rating, Corn",corn; [5],0
same,Corn plant response rating,corn; [6],0
same,Corn plant response rating,corn; [7],0
same,Corn plant response rating,corn; [8],0
same,Crabgrass plant response rating,crabgrass; [1],0
same,Crabgrass plant response rating,crabgrass; [2],8
same,"Plant response rating, Crabgrass",crabgrass; [3],2
same,"Plant response rating, Crabgrass",crabgrass; [4],7
same,"Plant response rating, Crabgrass",crabgrass; [5],9
same,Crabgrass plant response rating,crabgrass; [6],9
same,Crabgrass plant response rating,crabgrass; [7],1
same,Crabgrass plant response rating,crabgrass; [8],9
same,Sugarbeets plant response rating,sugar beet; [1],0
same,Sugarbeets plant response rating,sugar beet; [2],0
same,"Plant response rating, Sugarbeets",sugar beet; [3],0
same,"Plant response rating, Sugarbeets",sugar beet; [4],0
same,"Plant response rating, Sugarbeets",sugar beet; [5],0
same,Sugarbeets plant response rating,sugar beet; [6],0
same,Sugarbeets plant response rating,sugar beet; [7],0
same,Sugarbeets plant response rating,sugar beet; [8],0
same,Redroot pigweed plant response rating,pigweed; [1],0
same,Redroot pigweed plant response rating,pigweed; [2],0
same,"Plant response rating, Redroot pigweed",pigweed; [3],0
same,"Plant response rating, Redroot pigweed",pigweed; [4],0
same,"Plant response rating, Redroot pigweed",pigweed; [5],0
same,Redroot pigweed plant response rating,pigweed; [6],0
same,Redroot pigweed plant response rating,pigweed; [7],0
same,Redroot pigweed plant response rating,pigweed; [8],0
same,Morningglory plant response rating,morningglory; [1],0
same,Morningglory plant response rating,morningglory; [2],0
same,"Plant response rating, Morningglory",morningglory; [3],0
same,"Plant response rating, Morningglory",morningglory; [4],0
same,"Plant response rating, Morningglory",morningglory; [5],0
same,Morningglory plant response rating,morningglory; [6],0
same,Morningglory plant response rating,morningglory; [7],0
same,Morningglory plant response rating,morningglory; [8],3
same,Soybean plant response rating,soybean; [1],1
same,Soybean plant response rating,soybean; [2],1
same,"Plant response rating, Soybean",soybean; [3],0
same,"Plant response rating, Soybean",soybean; [4],0
same,"Plant response rating, Soybean",soybean; [5],0
same,Soybean plant response rating,soybean; [6],0
same,Soybean plant response rating,soybean; [7],1
same,Soybean plant response rating,soybean; [8],1
same,Rape plant response rating,rape; [1],0
same,Rape plant response rating,rape; [2],0
same,"Plant response rating, Rape",rape; [3],0
same,"Plant response rating, Rape",rape; [4],0
same,"Plant response rating, Rape",rape; [5],0
same,Rape plant response rating,rape; [6],0
same,Rape plant response rating,rape; [7],0
same,Rape plant response rating,rape; [8],0
